Data from article PMC12541891 (MicrobiologyOpen, 2025).
≈ marks a conversion by molar mass, not a printed value. Where “and” joins values, the source holds several entries; their conditions need not be identical. Equal values may be shown once.

Tests used:
C. krusei biofilm = assay: Biofilm biomass by crystal violet (CV) assay; format: cell-based, Candida krusei; details: substance alone at MIC
Method: (§1) For all bacterial strains considered in the study, biofilm was performed on a 96‐well plate inoculated with 200 µL of a bacterial suspension 1 × 10^6 CFU/mL and incubated 24 h at 37°C. After incubation for 4 h at 37°C, the medium was aspirated, non‐adherent cells were removed, washed with PBS and added with 200 µL of fresh medium. […] Similarly, to perform fungal biofilm, the different Candida species were grown for 24 h at 28°C on a multi‐wells plate, washed twice with sterile PBS, and then resuspended at 37°C in RPMI 1640 plus 10% FBS at 2.5 × 10^7 cells. After incubation for 3 h at 37°C in six‐well polystyrene plates, the medium was aspirated, non‐adherent cells were removed and washed with PBS.
(§2) To quantify bacterial and Candida biofilm biomass, CV, a dye able to color the biofilm matrix, was used. Firstly, after the removal of supernatant and washing with PBS, biofilm was fixed adding 100 µL of 99% methanol for 15 min. Then, methanol was rinsed off and the plates were air‐dried. Subsequently, 100 µL of a 0.1% of CV solution were added to wells and, after 20 min of contact, the plates were washed under running tap water. To dissolve the bounded CV, 150 µL of 33% of glacial acetic acid were added to wells. The absorbance was measured at 590 nm using an automatic microplate reader, Tecan Sunrise (Tecan Group Ltd., Männedorf, Switzerland).

C. albicans biofilm = assay: Biofilm metabolic activity by XTT-reduction assay; format: cell-based, Candida albicans
Method: as §1
(§3) The biofilm metabolic activity was evaluated by XTT assay, that highpoints the activity through the reduction of the tetrazolium salt to formazan. After the removal of supernatant and washing with PBS, a solution of XTT‐menadione solution were added to wells. The XTT‐menadione was prepared dissolving XTT powder in prewarmed PBS (37°C) at 0.5 g/L. The solution was sterilized through a 0.22 μm pore size filter. Before each assay, the XTT solution was thawed and supplemented with menadione, a 10 mM stock dissolved in acetone to a final concentration 1 μM. Plates were incubated for 3 h at 37°C in the dark and then the absorbance was measured at 492 nm using the microplate reader, Tecan Sunrise.

C. krusei 44956 = assay: MIC and MFC by microbroth dilution; format: cell-based, Candida krusei; details: Pichia kudriavzevii, 44956
Method: (§4) No substance was added, in one well, for growth control. A bacterial suspension of 1 × 10^8 CFU/mL was inoculated into all wells of the plate and incubated for 24 h at 37°C. […] The dilutions ranged from 4 to 2000 µg/mL for the substances. The inoculum size was about 2.5×10^3 cells/mL. The plates were incubated at 28°C for 24–48 h. The MIC was determined as the lowest substances' concentration where no visible bacterial or fungal growth was observed. […] Each antimicrobial assay was performed in triplicate.

C. glabrata DSY562 = assay: MIC and MFC by microbroth dilution; format: cell-based, Candida glabrata; details: Nakaseomyces glabratus, DSY562
Method: as §4

C. tropicalis biofilm = assay: Biofilm biomass by crystal violet (CV) assay; format: cell-based, Candida tropicalis
Method: as §1, §2

[1] = tested on: methicillin resistant S. aureus (MRSA); assay: MIC and MBC by microbroth dilution; format: cell-based; details: Staphylococcus aureus
Method: as §4

[2] = tested on: Escherichia coli MG1655 (ATCC 700926); assay: MIC and MBC by microbroth dilution; format: cell-based
Method: as §4

[3] = tested on: Extended Spectrum-Beta-Lactamase producing E. coli (ESBL-Ec); assay: MIC and MBC by microbroth dilution; format: cell-based; details: Escherichia coli
Method: as §4

[4] = tested on: Staphylococcus aureus ATCC 6538; assay: MIC and MBC by microbroth dilution; format: cell-based
Method: as §4

S. aureus biofilm [5] = assay: Biofilm biomass by crystal violet (CV) assay; format: cell-based, Staphylococcus aureus; details: substance alone at MIC
Method: as §1, §2

MRSA biofilm [6] = assay: Biofilm biomass by crystal violet (CV) assay; format: cell-based, Staphylococcus aureus
Method: as §1, §2

S. aureus biofilm [7] = assay: Biofilm metabolic activity by XTT-reduction assay; format: cell-based, Staphylococcus aureus; details: substance alone at MIC
Method: as §1, §3

MRSA biofilm [8] = assay: Biofilm metabolic activity by XTT-reduction assay; format: cell-based, Staphylococcus aureus; details: substance alone at MIC
Method: as §1, §3

E. coli biofilm = assay: Biofilm metabolic activity by XTT-reduction assay; format: cell-based, Escherichia coli; details: substance alone at MIC
Method: as §1, §3

ESBL-Ec biofilm = assay: Biofilm metabolic activity by XTT-reduction assay; format: cell-based, Escherichia coli; details: substance alone at MIC
Method: as §1, §3

C. albicans AIDS 68 = assay: MIC and MFC by microbroth dilution; format: cell-based; details: Candida albicans, AIDS68
Method: as §4

C. tropicalis 45,615 = assay: MIC and MFC by microbroth dilution; format: cell-based; details: Candida tropicalis
Method: as §4

C. glabrata biofilm = assay: Biofilm biomass by crystal violet (CV) assay; format: cell-based, Candida glabrata
Method: as §1, §2

[9] = biofilm in formation, sub-MIC concentrations alone or in combination (Table 5), listed as C
[10] = preformed biofilm (24 h), substance alone at MIC
[11] = preformed biofilm, sub-MIC concentrations alone or in combination (Table 5), listed as C

SMILES: Cc1ccc(C(C)C)cc1O [Carvacrol, 2‐methyl‐5‐isopropyl phenol]
- Percentage of biomass reduction (C. krusei biofilm; biofilm in formation (3 h)): 18% and 18.4%
- Percentage of biomass reduction (C. krusei biofilm; preformed biofilm (24 h)): 39.2%
- Percentage of metabolic activity reduction (C. albicans biofilm; biofilm in formation (3 h), substance alone at MIC): 91%
- Percentage of metabolic activity reduction (C. albicans biofilm; [9]): 55.1%
- Percentage of metabolic activity reduction (C. albicans biofilm; [10]): 93%
- Percentage of metabolic activity reduction (C. albicans biofilm; [11]): 44.9%
- MFC (C. krusei 44956): 500 µg/mL (≈ 3330 µM)
- MIC (C. krusei 44956): 500 µg/mL (≈ 3330 µM)
- MFC (C. glabrata DSY562): 500 µg/mL (≈ 3330 µM)
- MIC (C. glabrata DSY562): 250 µg/mL (≈ 1660 µM)
- Percentage of biomass reduction (C. tropicalis biofilm; [9]): 25.3%
- Percentage of biomass reduction (C. tropicalis biofilm; [10]): 57.4%
- Percentage of biomass reduction (C. tropicalis biofilm; [11]): 20.8%
- MBC [1]: 125 µg/mL (≈ 832 µM)
- MIC ([1]; 24 h): 125 µg/mL (≈ 832 µM)
- MBC [2]: 125 µg/mL (≈ 832 µM)
- MIC ([2]; 24 h): 125 µg/mL (≈ 832 µM)
- MBC [3]: 125 µg/mL (≈ 832 µM)
- MIC ([3]; 24 h): 125 µg/mL (≈ 832 µM)
- MBC ([4]; ATCC6538): 125 µg/mL (≈ 832 µM)
- MIC ([4]; ATCC6538, 24 h): 125 µg/mL (≈ 832 µM)
- Percentage of biomass reduction (S. aureus biofilm [5]; biofilm in formation (4 h)): 56.2%
- Percentage of biomass reduction (S. aureus biofilm [5]; preformed biofilm (24 h)): 71.5%
- Percentage of biomass reduction (MRSA biofilm [6]; biofilm in formation (4 h), substance alone at MIC): 26.7%
- Percentage of biomass reduction (MRSA biofilm [6]; biofilm in formation, sub-MIC concentrations alone or in combination (Table 5)): 30%
- Percentage of biomass reduction (MRSA biofilm [6]; [10]): 58%
- Percentage of metabolic activity reduction (S. aureus biofilm [7]; biofilm in formation (4 h)): 54.9%
- Percentage of metabolic activity reduction (S. aureus biofilm [7]; preformed biofilm (24 h)): 88%
- Percentage of metabolic activity reduction (MRSA biofilm [8]; biofilm in formation (4 h)): 24.6%
- Percentage of metabolic activity reduction (MRSA biofilm [8]; preformed biofilm (24 h)): 45.6%
- Percentage of metabolic activity reduction (E. coli biofilm; biofilm in formation (4 h)): 62%
- Percentage of metabolic activity reduction (E. coli biofilm; preformed biofilm (24 h)): 28.5%
- Percentage of metabolic activity reduction (ESBL-Ec biofilm; biofilm in formation (4 h)): 57%
- Percentage of metabolic activity reduction (ESBL-Ec biofilm; preformed biofilm (24 h)): 22%
- MFC (C. albicans AIDS 68): 500 µg/mL (≈ 3330 µM)
- MIC (C. albicans AIDS 68): 250 µg/mL (≈ 1660 µM)
- MFC (C. tropicalis 45,615): 500 µg/mL (≈ 3330 µM)
- MIC (C. tropicalis 45,615): 500 µg/mL (≈ 3330 µM)
- Percentage of biomass reduction (C. glabrata biofilm; [9]): 64.9%
- Percentage of biomass reduction (C. glabrata biofilm; [10]): 52.9%
- Percentage of biomass reduction (C. glabrata biofilm; [11]): 44.3%
